Data as given in PubChem BioAssay (NCI).
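Tested at 5 concentrations; 48 h exposure; 96-well plates; endpoints linearly interpolated, else capped at highest concentration. Here, GI50 denotes the concentration required for 50% inhibition of growth. At the TGI there is no net growth.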

Legend:
Experiment in all cases: inhibition of tumour cell growth, NCI panel, 48 h
[1] = tested on: RXF 393 renal
[2] = tested on: SR leukemia
[3] = tested on: SNB-19 CNS
[4] = tested on: CAKI-1 renal
[5] = tested on: DU-145 prostate
[6] = tested on: LOX IMVI melanoma
[7] = tested on: HL-60(TB) leukemia
[8] = tested on: A498 renal
[9] = tested on: OVCAR-8 ovarian
[10] = tested on: HOP-92 NSCLC

| Compound | GI50 [1] [µM] | TGI [1] [µM] | GI50 [2] [µM] | TGI [2] [µM] | GI50 [3] [µM] | TGI [3] [µM] | GI50 [4] [µM] | TGI [4] [µM] | GI50 [5] [µM] | TGI [5] [µM] | GI50 [6] [µM] | TGI [6] [µM] | GI50 [7] [µM] | TGI [7] [µM] | GI50 [8] [µM] | TGI [8] [µM] | GI50 [9] [µM] | TGI [9] [µM] | GI50 [10] [µM] | TGI [10] [µM] |
| --- | --- | --- | --- | --- | --- | --- | --- | --- | --- | --- | --- | --- | --- | --- | --- | --- | --- | --- | --- | --- |
| c1ccc2c(c1)[I+]c1ccccc1-2 | > 50 | > 50 | 19.4 | > 50 | > 50 | > 50 | > 50 | > 50 | 35.6 | > 50 | > 50 | > 50 | > 50 | > 50 | 27.7 | > 50 | > 50 | > 50 | 18.9 | > 50 |
| O=c1oc2ccccc2c(O)c1/C=N\c1nc(-c2ccccc2)cs1 |  | 26.9 |  | 5.31 |  | 62.4 |  | 12.2 |  | 30.8 |  | 23.6 |  | 4.01 |  | > 100 |  | > 100 |  | 25.2 |
| Cc1cc(/C=C2\SC(=Nc3ccccc3)N(C3CCCC3)C2=O)c(C)n1-c1ccc(Cl)cc1 | > 100 | > 100 | > 100 | > 100 | > 100 | > 100 | > 100 | > 100 | > 100 | > 100 | > 100 | > 100 | > 100 | > 100 | 0.295 | > 100 | > 100 | > 100 | > 100 | > 100 |
| CC#CC(O)(C(=O)OC1CCCN(C)C1)C1=CC=CCC1 (stereo not given) |  | > 100 |  | > 100 |  | > 100 |  | > 100 |  | > 100 |  | > 100 |  | > 100 |  | > 100 |  | > 100 |  | > 100 |
| COc1cc(-c2cnn(C)c2)ccc1Nc1ncc2ccnc(N[C@@H](C)C(C)(C)C)c2n1 | 8.98 | > 100 | 0.695 | > 100 | > 82.3 | > 100 | > 100 | > 100 | > 100 | > 100 | 5.43 | > 100 | > 100 | > 100 | > 100 | > 100 | > 49.6 | > 100 | > 56.7 | > 100 |
| CN1CCN(Cc2ccc(NC(=O)c3cncc(C#Cc4cnc(N)c5ccc(F)cc45)c3)cc2C(F)(F)F)CC1 | 0.826 | 2.73 | 1.25 | 33.3 | 4.39 | 8.96 | 1.1 | 4.57 | 1.25 | 5.01 | 1.01 | 4.27 | 1.05 | 4.42 | 0.902 | 3.92 | 2.31 | 7.09 | 0.989 | 5.58 |
| Nc1nc(-c2cccc([N+](=O)[O-])c2)c(Br)c(=O)[nH]1 |  | > 100 |  | > 100 |  | > 73 |  | > 100 |  | > 100 |  | > 100 |  | > 100 |  | > 100 |  | > 100 |  | > 100 |
| CCCCCCNC(=O)C1=C(C)NC(C)=C(C(=O)NCCCCCC)C1 |  | > 100 |  | > 100 |  | > 100 |  | > 100 |  | > 100 |  | > 100 |  | > 100 |  | > 100 |  | > 100 |  | > 100 |
| O=[N+]([O-])c1ccc2[nH]cc(-c3c4ccsc4cc4[nH]c5ccc([N+](=O)[O-])cc5c34)c2c1 | 0.592 | 1.85 | 0.419 | 33.3 | 1.32 | 9.13 | 0.758 | 9.94 | 0.833 | 2.69 | 0.834 | 5.48 | 1.1 | 19.4 | 0.726 | 3.13 | 1.25 | 19.7 | 0.882 | 6.94 |
| CC(=O)Oc1cc(C)ccc1[C@]1(C)CC[C@H](C)/C1=C\Br | 3.86 | 15.9 | 2.72 | 12.8 | 3.97 | 17.4 | 3.53 | 14.3 | 4.87 | 16.9 | 4.77 | 17.1 | 3.41 | 15 | 5.2 | 17.1 | 5.05 | 21 | 2.03 | 12.9 |
